Like-named read-outs stand apart in the source and are kept apart here.
Assays:
[1] = pH stability; type: physicochemical; settings: 5.5 mM, buffer/ethanol 5:1 v/v; for remaining at 100 h, 5500 µM: read-out: Residual amounts (%) after 100 hours; for Residual amounts (%) after 100 hours: 5500 µM
From the text: The chromanol glycoside obtained in Examples 1 to 5 [6-hydroxy-2,5,7,8-tetramethyl chroman-2-methyl-α-D-glucopyranoside represented by the aforementioned formula (4)], the chromanol glycoside obtained in Examples 6 to 8 [6-hydroxy-2,5,7,8-tetramethyl chroman-2-ethyl-α-D-glucopyranoside represented by the aforementioned formula (7)], the chromanol glycoside obtained in Examples 4 and 5 [6-hydroxy-2,5,7,8-tetramethyl chroman-2-methyl-α-D-maltopyranoside represented by the aforementioned formula (5)], and the chromanol glycoside obtained in Example 8 [6 -hydroxy-2,5,7,8-tetramethyl chroman-2-ethyl-α-D-maltopyranoside represented by the aforementioned formula (8)] were tested for pH stability. This test was specifically performed by incubating a 5.5 mM chromanol glycoside solution (buffer/ethanol, 5:1 v/v) having a varying pH value. At regular intervals, aliquots of the reaction mixture were withdrawn and the residual amounts of chromanol glycoside were measured by HPC. For the purpose of comparison, the 2-substituted alcohols represented by the aforementioned formulas (3) and (6) and Trolox were similarly tested.
It is clearly noted from the test results that the conversion of 2-substituted alcohols into respective glycosides enhances pH stability. The buffer used for the test were 100 mM acetate buffer of pH 5.5, 100 mM phosphate buffer of pH 7.0, and 100 mM tris-HCl buffer of pH 8,5.

[2] = solubility in water; type: physicochemical; settings: 25 °C, constant stirring at 200 rpm, HPLC; for solubility: water, read-out: solubility in water (amounts of sample dissolved in 1 ml of water)
From the text: The chromanol glycoside obtained in Examples 1 to 5 [6-hydroxy-2,5,7,8-tetramethyl chroman-2-methyl-α-D-glucopyranoside represented by the aforementioned formula (4)], the chromanol glycoside obtained in Examples 6 to 8 [6-hydroxy-2,5,7,8-tetramethyl chroman-2-ethyl-α-D-glucopyranoside represented by the aforementioned formula (7)], the chromanol glycoside obtained in Examples 4 and 5 [6-hydroxy-2,5,7,8-tetramethyl chroman-2-methyl-α-D-maltopyranoside represented by the aforementioned formula (5)], and the chromanol glycoside obtained in Example 8 [6-hydroxy-2,5,7,8-tetramethyl chroman-2-ethyl-α-D-maltopyranoside represented by the aforementioned formula (8)] were tested for solubility in water. Specifically, this test was performed by adding an excess amount of a given chromanol glycoside to 1 ml of water. The reaction mixture was incubated at 25° C. for […] with constant stirring at 200 rpm. After 100 hours, the reaction mixture was transferred into a membrane filter (produced by Nihon Millipore Ltd. and marketed under trademark designation of "HPLC Sample Prep C02-LG") and insoluble substances were removed by centrifugation (4,100×g, 10 minutes, 20° C.). The filtered solution was subjected to HPLC to determine the amount of chromanol glycoside remaining in the aqueous solution. For the purpose of comparison, the 2-substituted alcohols represented by the aforementioned formulas (3) and […] and Trolox were similarly tested.
The numerals given in the tables represent the amounts of sample dissolved in 1 ml of water.

[3] = hydroperoxidation of methyl linoleate via radical chain reaction in hexane/isopropyl alcohol; type: biochemical; settings: 0.1 μmol antioxidant in 1.1 ml hexane/isopropyl alcohol 1:1; 37 °C; oil-soluble radical generator; in words
From the text: Antioxidant activity on the chromanol glycoside obtained in Examples 1 to 5 [6-hydroxy-2,5,7,8-tetramethyl chroman-2-methyl-α-D-glucopyranoside represented by the aforementioned formula (4)], the chromanol glycoside obtained in Examples 6 to 8 [6-hydroxy-2,5,7,8-tetramethyl chroman-2-ethyl-α-D-glucopyranoside represented by the aforementioned formula (7)], the chromanol glycoside obtained in Examples 4 and 5 [6-hydroxy-2,5,7,8-tetramethyl chroman-2-methyl-α-D-maltopyranoside represented by the aforementioned formula (5)], and the chromanol glycoside obtained in Example 8 [6-hydroxy-2,5,7,8-tetramethyl chroman-2-ethyl-α-D-maltopyranoside represented by the aforementioned formula (8)] was investigated by measuring the hydroperoxidation of methyl linoleate via radical chain reaction. Specifically, this test was performed by incubating 132 μmol of methyl linoleate, 16.5 μmol of an oil-soluble radical generator [2,2'-azo-bis(2,4-dimethyl valeronitrile)], 0.1 μmol of antioxidant in 1.1 ml of a hexane/isopropyl alcohol (1:1 v/v), and the mixture was incubated at 37° C. At regular intervals, aliquots of the reaction mixture were withdrawn and the amount of methyl linoleate hydroperoxides were measured by HPLC. […] EXAMPLE 10

[4] = antioxidant activity using liposomal membranes (phosphatidylcholine hydroperoxides); type: biochemical; settings: 0.1 μmol antioxidant in 1.1 ml 10 mM tris-HCl buffer pH 7.4; water-soluble radical generator; in words
From the text: Antioxidant activity on the chromanol glycoside obtained in Examples 1 to 5 [6-hydroxy-2,5,7,8-tetramethyl chroman-2-methyl-α-D-glucopyranoside represented by the aforementioned formula (4)[, the chromanol glycoside obtained in Examples 6 to 8 [6-hydroxy-2,5,7,8-tetramethyl chroman-2-ethyl-α-D-glucopyranoside represented by the aforementioned formula (7)], the chromanol glycoside obtained in Examples 4 and 5 [6-hydroxy-2,5,7,8-tetramethyl chroman-2-methyl-α-D-maltopyranoside represented by the aforementioned formula (5)], and the chromanol glycoside obtained in Example 8 [6-hydroxy-2,5,7,8-tetramethyl chroman-2-ethyl-α-D-malto-pyranoside represented by the aforementioned formula (8)] was investigated by using a liposonal membranes. Specifically, this test was performed by adjusting a reaction solution consisting of 5.5 μmol of a multilameller liposomes of egg yolk phosphatidylcholine, 16.5 μmol of a water-soluble radical generator [2,2'-azo-bis(2-amidinopropane) dihydrochloride], and 0.1 μmol of antioxidant in 1.1 ml of a 10 mM tris-HCl buffer (pH 7.4). At regular intervals, aliquots of the reaction mixture were withdrawn and the amount of phosphatidylcholine hydroperoxides were measured by HPLC.

[5] = acetate buffer/ethanol 5:1, pH 5.5, pH 5.5 (100 mM acetate buffer)
[6] = phosphate buffer/ethanol 5:1, pH 7, pH 7.0 (100 mM phosphate buffer)
[7] = tris-hcl buffer/ethanol 5:1, pH 8.5, pH 8.5 (100 mM tris-HCl buffer)

| remaining at 100 h, 5500 µM [1, 5] [%] | remaining at 100 h, 5500 µM [1, 6] [%] | remaining at 100 h, 5500 µM [1, 7] [%] | solubility [2] [mg/mL] | Structure (SMILES) | antioxidant activity (methyl linoleate hydroperoxides) [3] | antioxidant activity (phosphatidylcholine hydroperoxides) [4] | also measured |
| --- | --- | --- | --- | --- | --- | --- | --- |
| 73 | 29 | 7 | 1 | Cc1c(C)c2c(c(C)c1O)CCC(C)(CO)O2 (racemic) [formula (3), reference compound] | – | – | – |
| 63 | 19 | 3 | 0.1 | Cc1c(C)c2c(c(C)c1O)CCC(C)(CCO)O2 (racemic) [formula (6), reference compound] | – | – | – |
| 91 | 41 | 20 | ~1000 | Cc1c(C)c2c(c(C)c1O)CCC(C)(CO[C@H]1O[C@H](CO)[C@@H](O)[C@H](O)[C@H]1O)O2 (stereo partly drawn) [formula (4), 6-hydroxy-2,5,7,8-tetramethyl chroman-2-methyl-α-D-glucopyranoside] | excel 3,5-tert-butyl-4-hydroxytoluene and equal α-tocopherol | more effective antioxidants than ascorbic acid | Residual amounts (%) after 100 hours ([1]; pH 5.5 (100 mM acetate buffer), listed as formula (4) of Example 2, 6000 min): 85%; Residual amounts (%) after 100 hours ([1]; pH 5.5 (100 mM acetate buffer), listed as formula (4) of Example 3, 6000 min): 89%; Residual amounts (%) after 100 hours ([1]; pH 5.5 (100 mM acetate buffer), listed as formula (4) of Example 4, 6000 min): 84%; Residual amounts (%) after 100 hours ([1]; pH 5.5 (100 mM acetate buffer), listed as formula (4) of Example 5, 6000 min): 88%; Residual amounts (%) after 100 hours ([1]; pH 7.0 (100 mM phosphate buffer), listed as formula (4) of Example 2, 6000 min): 42%; Residual amounts (%) after 100 hours ([1]; pH 7.0 (100 mM phosphate buffer), listed as formula (4) of Example 3, 6000 min): 43%; Residual amounts (%) after 100 hours ([1]; pH 7.0 (100 mM phosphate buffer), listed as formula (4) of Example 4, 6000 min): 44%; Residual amounts (%) after 100 hours ([1]; pH 7.0 (100 mM phosphate buffer), listed as formula (4) of Example 5, 6000 min): 43%; Residual amounts (%) after 100 hours ([1]; pH 8.5 (100 mM tris-HCl buffer), listed as formula (4) of Example 2, 6000 min): 19%; Residual amounts (%) after 100 hours ([1]; pH 8.5 (100 mM tris-HCl buffer), listed as formula (4) of Example 4, 6000 min): 19%; Residual amounts (%) after 100 hours ([1]; pH 8.5 (100 mM tris-HCl buffer), listed as formula (4) of Example 5, 6000 min): 21%; solubility in water (amounts of sample dissolved in 1 ml of water) ([2]; listed as formula (4) of Example 3): About 1000 mg/ml; solubility in water (amounts of sample dissolved in 1 ml of water) ([2]; listed as formula (4) of Example 4): About 1000 mg/ml; solubility in water (amounts of sample dissolved in 1 ml of water) ([2]; listed as formula (4) of Example 5): About 1000 mg/ml |
| 84 | 40 | 19 | – | Cc1c(C)c2c(c(C)c1O)CCC(C)(CO[C@H]1O[C@H](CO)[C@@H](O[C@H]3O[C@H](CO)[C@@H](O)[C@H](O)[C@H]3O)[C@H](O)[C@H]1O)O2 (stereo partly drawn) [formula (5), 6-hydroxy-2,5,7,8-tetramethyl chroman-2-methyl-α-D-maltopyranoside] | excel 3,5-tert-butyl-4-hydroxytoluene and equal α-tocopherol | more effective antioxidants than ascorbic acid | Residual amounts (%) after 100 hours ([1]; pH 5.5 (100 mM acetate buffer), listed as formula (5) of Example 5, 6000 min): 86%; Residual amounts (%) after 100 hours ([1]; pH 7.0 (100 mM phosphate buffer), listed as formula (5) of Example 5, 6000 min): 44%; Residual amounts (%) after 100 hours ([1]; pH 8.5 (100 mM tris-HCl buffer), listed as formula (5) of Example 5, 6000 min): 20% |
| 69 | 24 | 7 | 33 | Cc1c(C)c2c(c(C)c1O)CCC(C)(CCO[C@H]1O[C@H](CO)[C@@H](O)[C@H](O)[C@H]1O)O2 (stereo partly drawn) [formula (7), 6-hydroxy-2,5,7,8-tetramethyl chroman-2-ethyl-α-D-glucopyranoside] | excel 3,5-tert-butyl-4-hydroxytoluene and equal α-tocopherol | more effective antioxidants than ascorbic acid | Residual amounts (%) after 100 hours ([1]; pH 5.5 (100 mM acetate buffer), listed as formula (7) of Example 7, 6000 min): 71%; Residual amounts (%) after 100 hours ([1]; pH 5.5 (100 mM acetate buffer), listed as formula (7) of Example 8, 6000 min): 70%; Residual amounts (%) after 100 hours ([1]; pH 7.0 (100 mM phosphate buffer), listed as formula (7) of Example 7, 6000 min): 26%; Residual amounts (%) after 100 hours ([1]; pH 7.0 (100 mM phosphate buffer), listed as formula (7) of Example 8, 6000 min): 25%; Residual amounts (%) after 100 hours ([1]; pH 8.5 (100 mM tris-HCl buffer), listed as formula (7) of Example 8, 6000 min): 8%; solubility in water (amounts of sample dissolved in 1 ml of water) ([2]; listed as formula (7) of Example 7): 45 mg/mL; solubility in water (amounts of sample dissolved in 1 ml of water) ([2]; listed as formula (7) of Example 8): 45 mg/mL |
